Measurements from ChEMBL document CHEMBL2169878 (J Med Chem, 2012).
The source made the active and inactive calls. The rule behind the calls is not given here.

Legend:
[1] = biological target: Chloroquine resistance transporter (Plasmodium falciparum, UniProt Q9N623); test: Inhibition of chloroquine-resistant Plasmodium falciparum Dd2 CRT expressed in Xenopus laevis oocyte assessed as inhibition of [3H]chloroquine uptake measured from 1 to 2 hrs
[2] = biological target: T1, Chloroquine resistance transporter (Plasmodium falciparum) (UniProt Q9N623); test: Inhibition of chloroquine-resistant Plasmodium falciparum Dd2 CRT expressed in Xenopus laevis oocyte assessed as inhibition of [3H]chloroquine uptake at 100 uM measured from 1 to 2 hrs
T1 sequence (whole entry): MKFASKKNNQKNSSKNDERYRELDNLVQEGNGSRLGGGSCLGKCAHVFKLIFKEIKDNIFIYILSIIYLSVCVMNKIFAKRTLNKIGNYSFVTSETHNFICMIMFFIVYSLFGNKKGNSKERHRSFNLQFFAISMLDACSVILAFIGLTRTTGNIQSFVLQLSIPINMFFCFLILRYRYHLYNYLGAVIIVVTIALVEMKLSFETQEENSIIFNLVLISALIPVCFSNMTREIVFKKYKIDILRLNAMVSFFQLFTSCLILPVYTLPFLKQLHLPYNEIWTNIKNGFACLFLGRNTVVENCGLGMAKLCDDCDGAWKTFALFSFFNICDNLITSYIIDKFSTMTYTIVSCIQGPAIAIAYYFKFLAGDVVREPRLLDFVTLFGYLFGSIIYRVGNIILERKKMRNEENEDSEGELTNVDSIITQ

[3] = system: Plasmodium falciparum; test: Antiplasmodial activity against chloroquine-resistant Plasmodium falciparum W2 infected in human RBC after 72 hrs by parasite lactate dehydrogenase assay; format: functional, organism-based; conditions: W2, 72 h
[4] = system: Plasmodium falciparum; test: Antiplasmodial activity against chloroquine-sensitive Plasmodium falciparum D10 infected in human RBC after 72 hrs by parasite lactate dehydrogenase assay; format: functional, organism-based; conditions: D10, 72 h
[5] = system: Plasmodium falciparum; test: Antiplasmodial activity against chloroquine-sensitive Plasmodium falciparum NF54 infected in human erythrocytes assessed as inhibition of [3H]hypoxanthine incorporation incubated for 48 hrs prior to [3H]hypoxanthine addition measured after 48 hrs by liquid scintillation counting; format: functional, organism-based
[6] = system: Plasmodium falciparum; test: Antiplasmodial activity against chloroquine-resistant Plasmodium falciparum K1 infected in human erythrocytes assessed as inhibition of [3H]hypoxanthine incorporation incubated for 48 hrs prior to [3H]hypoxanthine addition measured after 48 hrs by liquid scintillation counting; format: functional, organism-based
[7] = system: Salmonella typhimurium; test: Mutagenicity against Salmonella typhimurium TA100 assessed as revertants at 6 uM incubated for 90 mins followed by drug washout measured after 2 days relative to positive control; format: toxicity, organism-based; conditions: salmonella enterica subsp. enterica serovar typhimurium, 1.5 h
[8] = system: Salmonella typhimurium; test: Mutagenicity against Salmonella typhimurium TA100 assessed as revertants at 3 uM incubated for 90 mins followed by drug washout measured after 2 days relative to positive control; format: toxicity, organism-based; conditions: salmonella enterica subsp. enterica serovar typhimurium, 1.5 h
[9] = system: Salmonella typhimurium; test: Mutagenicity against Salmonella typhimurium TA100 assessed as revertants at 48 uM incubated for 90 mins followed by drug washout measured after 2 days relative to positive control; format: toxicity, organism-based; conditions: salmonella enterica subsp. enterica serovar typhimurium
[10] = system: Salmonella typhimurium; test: Mutagenicity against Salmonella typhimurium TA98 assessed as revertants at 1.5 uM incubated for 90 mins followed by drug washout measured after 2 days relative to positive control; format: toxicity, organism-based; conditions: salmonella enterica subsp. enterica serovar typhimurium, 1.5 h
[11] = system: Salmonella typhimurium; test: Mutagenicity against Salmonella typhimurium TA98 assessed as revertants at 6 uM incubated for 90 mins followed by drug washout measured after 2 days relative to positive control; format: toxicity, organism-based; conditions: salmonella enterica subsp. enterica serovar typhimurium, 1.5 h
[12] = system: Salmonella typhimurium; test: Mutagenicity against Salmonella typhimurium TA98 assessed as revertants at 48 uM incubated for 90 mins followed by drug washout measured after 2 days relative to positive control; format: toxicity, organism-based; conditions: salmonella enterica subsp. enterica serovar typhimurium, 1.5 h
[13] = system: Salmonella typhimurium; test: Mutagenicity against Salmonella typhimurium TA98 assessed as revertants at 24 uM incubated for 90 mins followed by drug washout measured after 2 days relative to positive control; format: toxicity, organism-based; conditions: salmonella enterica subsp. enterica serovar typhimurium, 1.5 h
[14] = system: Salmonella typhimurium; test: Mutagenicity against Salmonella typhimurium TA98 assessed as revertants at 12 uM incubated for 90 mins followed by drug washout measured after 2 days relative to positive control; format: toxicity, organism-based; conditions: salmonella enterica subsp. enterica serovar typhimurium
[15] = Cytotoxicity against mouse NIH3T3 cells after 24 hrs by neutral red dye uptake assay; format: cell-based; conditions: read-out: TC50
[16] = Cytotoxicity against human HepG2 cells after 24 hrs by neutral red dye uptake assay; format: cell-based; conditions: read-out: TC50
[17] = system: Salmonella typhimurium; test: Mutagenicity against Salmonella typhimurium TA98 assessed as revertants at 3 uM incubated for 90 mins followed by drug washout measured after 2 days relative to positive control; format: toxicity, organism-based; conditions: salmonella enterica subsp. enterica serovar typhimurium, 1.5 h
[18] = system: Salmonella typhimurium; test: Mutagenicity against Salmonella typhimurium TA100 assessed as revertants at 1.5 uM incubated for 90 mins followed by drug washout measured after 2 days relative to positive control; format: toxicity, organism-based; conditions: salmonella enterica subsp. enterica serovar typhimurium, 1.5 h
[19] = system: Salmonella typhimurium; test: Mutagenicity against Salmonella typhimurium TA100 assessed as revertants at 12 uM incubated for 90 mins followed by drug washout measured after 2 days relative to positive control; format: toxicity, organism-based; conditions: salmonella enterica subsp. enterica serovar typhimurium
[20] = system: Salmonella typhimurium; test: Mutagenicity against Salmonella typhimurium TA100 assessed as revertants at 24 uM incubated for 90 mins followed by drug washout measured after 2 days relative to positive control; format: toxicity, organism-based; conditions: salmonella enterica subsp. enterica serovar typhimurium
[21] = system: Plasmodium berghei; test: Antimalarial activity against Plasmodium berghei ANKA expressing GFP infected in mouse assessed as cure from infection at 100 mg/kg, po administered 24 hrs post-infection measured on day 30; format: functional, organism-based; design: dose 100 mg/kg
[22] = system: Salmonella typhimurium; test: Mutagenicity against Salmonella typhimurium TA98 assessed as revertants at 16 uM incubated for 90 mins followed by drug washout measured after 2 days relative to positive control; format: toxicity, organism-based; conditions: salmonella enterica subsp. enterica serovar typhimurium
[23] = system: Plasmodium berghei; test: Antimalarial activity against Plasmodium berghei ANKA expressing GFP infected in mouse assessed as cure from infection at 30 mg/kg, po administered 24 hrs post-infection measured on day 30; format: functional, organism-based; design: dose 30 mg/kg
[24] = system: Plasmodium berghei; test: Antimalarial activity against Plasmodium berghei ANKA expressing GFP infected in mouse assessed as mean survival days at 30 mg/kg, po administered 24 hrs post-infection (reference value: 6 to 7 days); format: functional
[25] = system: Salmonella typhimurium; test: Mutagenicity against Salmonella typhimurium TA100 assessed as revertants at 2 uM incubated for 90 mins followed by drug washout measured after 2 days relative to positive control; format: toxicity, organism-based; conditions: salmonella enterica subsp. enterica serovar typhimurium
[26] = system: Plasmodium berghei; test: Antimalarial activity against Plasmodium berghei ANKA expressing GFP infected in mouse assessed as reduction in parasitemia at 100 mg/kg, po administered 24 hrs post-infection measured 48 hrs post-dosing by flow cytometric analysis; format: functional; design: scale not given: the % may be the effect or the level left
[27] = system: Salmonella typhimurium; test: Mutagenicity against Salmonella typhimurium TA100 assessed as revertants at 4 uM incubated for 90 mins followed by drug washout measured after 2 days relative to positive control; format: toxicity, organism-based; conditions: salmonella enterica subsp. enterica serovar typhimurium, 1.5 h
[28] = system: Salmonella typhimurium; test: Mutagenicity against Salmonella typhimurium TA100 assessed as revertants at 40 uM incubated for 90 mins followed by drug washout measured after 2 days relative to positive control; format: toxicity, organism-based; conditions: salmonella enterica subsp. enterica serovar typhimurium
[29] = system: Salmonella typhimurium; test: Mutagenicity against Salmonella typhimurium TA98 assessed as revertants at 4 uM incubated for 90 mins followed by drug washout measured after 2 days relative to positive control; format: toxicity, organism-based; conditions: salmonella enterica subsp. enterica serovar typhimurium
[30] = system: Plasmodium berghei; test: Antimalarial activity against Plasmodium berghei ANKA expressing GFP infected in mouse assessed as mean survival days at 100 mg/kg, po administered 24 hrs post-infection (reference value: 6 to 7 days); format: functional
[31] = system: Salmonella typhimurium; test: Mutagenicity against Salmonella typhimurium TA100 assessed as revertants at 80 uM incubated for 90 mins followed by drug washout measured after 2 days relative to positive control; format: toxicity, organism-based; conditions: salmonella enterica subsp. enterica serovar typhimurium
[32] = system: Plasmodium berghei; test: Antimalarial activity against Plasmodium berghei ANKA expressing GFP infected in mouse assessed as reduction in parasitemia at 30 mg/kg, po administered 24 hrs post-infection measured 48 hrs post-dosing by flow cytometric analysis; format: functional; design: scale not given: the % may be the effect or the level left
[33] = system: Salmonella typhimurium; test: Mutagenicity against Salmonella typhimurium TA98 assessed as revertants at 2 uM incubated for 90 mins followed by drug washout measured after 2 days relative to positive control; format: toxicity, organism-based; conditions: salmonella enterica subsp. enterica serovar typhimurium, 1.5 h
[34] = system: Salmonella typhimurium; test: Mutagenicity against Salmonella typhimurium TA98 assessed as revertants at 40 uM incubated for 90 mins followed by drug washout measured after 2 days relative to positive control; format: toxicity, organism-based; conditions: salmonella enterica subsp. enterica serovar typhimurium
[35] = system: Salmonella typhimurium; test: Mutagenicity against Salmonella typhimurium TA100 assessed as revertants at 16 uM incubated for 90 mins followed by drug washout measured after 2 days relative to positive control; format: toxicity, organism-based; conditions: salmonella enterica subsp. enterica serovar typhimurium
[36] = system: Salmonella typhimurium; test: Mutagenicity against Salmonella typhimurium TA98 assessed as revertants at 80 uM incubated for 90 mins followed by drug washout measured after 2 days relative to positive control; format: toxicity, organism-based; conditions: salmonella enterica subsp. enterica serovar typhimurium, 1.5 h

**Q.** For `CC(C)(C)NC(=O)[C@@H]1C[C@@H]2CCCC[C@@H]2CN1C[C@@H](O)[C@H](Cc1ccccc1)NC(=O)[C@H](CC(N)=O)NC(=O)c1ccc2ccccc2n1`, which IC50 [1] is on record?
**A.** 13000 nM

**Q.** With `Clc1ccc(C(c2ccc(Cl)cc2)(c2ccc(CN3CCCC3)cc2)N2CCN(c3ccnc4cc(Cl)ccc34)CC2)cc1` as the molecule, how does the inhibition [2] read?
**A.** 42%

**Q.** What about the IC50 [3] of the same molecule?
**A.** 582 nM

**Q.** And the IC50 [4]?
**A.** 277 nM

**Q.** And the IC50 [5]?
**A.** 91 nM

**Q.** What about the IC50 [6] of the same molecule?
**A.** 92 nM

**Q.** With `COc1ccc(CCN(C)CCCC(C#N)(c2ccc(OC)c(OC)c2)C(C)C)cc1OC` (stereo not drawn) as the molecule, how does the inhibition [2] read?
**A.** 74%

**Q.** Which IC50 [3] does the source give for `Clc1cccc(C(Nc2ccnc3cc(Cl)ccc23)c2ccc(CN3CCOCC3)c(Cl)c2)c1` (racemic) here?
**A.** 277 nM

**Q.** What about the IC50 [4] of the same molecule?
**A.** 442 nM

**Q.** What about the IC50 [5] of the same molecule?
**A.** 47 nM

**Q.** What about the IC50 [6] of the same molecule?
**A.** 107 nM

**Q.** Which results are given for `COc1ccc2nccc(NC(c3cccc(Cl)c3)c3ccc(CN4CCCC4)c(Cl)c3)c2c1` (racemic)?
**A.** Activity [7]: 4%; Activity [8]: 4%; Activity [9]: 10%; Activity [10]: 3%; Activity [11]: 0%; Activity [12]: 3%; IC50 [3]: 90 nM; Activity [13]: 3%; Activity [14]: 3%; CC50 at 24 h [15]: 24000 nM; IC50 [4]: 56 nM; CC50 at 24 h [16]: 12000 nM; IC50 [5]: 27 nM; Activity [17]: 0%; Activity [18]: 3%; Activity [19]: 4%; Activity [20]: 5%; IC50 [6]: 34 nM

**Q.** Which IC50 [3] does the source give for `COc1ccc2nccc(NC(c3cccc(Cl)c3)c3ccc(CN4CCCC4)c(F)c3)c2c1` (racemic) here?
**A.** 101 nM

**Q.** What about the IC50 [4] of the same molecule?
**A.** 41 nM

**Q.** What does the source list for `COc1ccc2nccc(NC(c3cccc(Cl)c3)c3ccc(CN4CCOCC4)c(Cl)c3)c2c1` (racemic)?
**A.** IC50 [3]: 229 nM; IC50 [4]: 198 nM; IC50 [5]: 81 nM; IC50 [6]: 114 nM

**Q.** Which IC50 [3] does the source give for `FC(F)(F)c1ccc2c(NC(c3cccc(Cl)c3)c3ccc(CN4CCCC4)c(Cl)c3)ccnc2c1` (racemic) here?
**A.** 111 nM

**Q.** And the IC50 [4]?
**A.** 74 nM

**Q.** And the IC50 [5]?
**A.** 34 nM

**Q.** And the IC50 [6]?
**A.** 46 nM

**Q.** What does the source list for `Clc1ccc(C(Nc2ccnc3cc(Cl)ccc23)c2ccc(CN3CCCC3)c(Cl)c2)cc1` (racemic)?
**A.** Activity [21]: inactive; Activity [22]: 3%; Activity [23]: inactive; MSD [24]: 7.7 days; inhibition [2]: 70%; IC50 [3]: 28 nM; Activity [13]: 10%; CC50 at 24 h [15]: 16000 nM; Activity [25]: 4%; Activity [26]: 99.5%; Activity [27]: 3%; Activity [28]: 8%; Activity [29]: 0%; IC50 [4]: 8.4 nM; CC50 at 24 h [16]: 4000 nM; MSD [30]: 14 days; Activity [31]: 1%; Activity [32]: 99.4%; Activity [33]: 17%; Activity [20]: 4%; Activity [34]: 10%; Activity [35]: 1%; Activity [36]: 0%

**Q.** Which results are given for `COc1ccc2nccc(NC(c3ccc(Cl)cc3)c3ccc(CN4CCCC4)c(Cl)c3)c2c1` (racemic)?
**A.** IC50 [3]: 76 nM; IC50 [4]: 24 nM

**Q.** Which IC50 [3] does the source give for `COc1ccc2nccc(NC(c3ccc(Cl)cc3)c3ccc(CN4CCCC4)c(F)c3)c2c1` (racemic) here?
**A.** 69 nM

**Q.** What about the IC50 [4] of the same molecule?
**A.** 58 nM

**Q.** And the IC50 [5]?
**A.** 25 nM

**Q.** What about the IC50 [6] of the same molecule?
**A.** 33 nM
